Legend:
fish = assay: Lengthening the seasonal mobility period of fish by feed supplements; assay type: in vivo; settings: for Lengthening of the seasonal mobility period of fish (in words): feed supplement
koi fish = assay: Pond test: fish feed to lengthen the period of seasonal mobility of koi (Example 5); assay type: in vivo; settings: relative index 1 to 5 (1 fully immobile, 5 fully mobile), 10 gram feed per day, additive per Table 1
Source text: Four ponds of 40 cubic meters each, all contained 50 koi fish with an approximate total body weight of 50 kg were used to show effectiveness of the fish feed according to the invention. One pond served as a control were the fish were fed with control feed, the fish in the other ponds received a feed according to the invention as prepared in examples 2 to 4 above. The experiment started when the temperature of the water was about 2 degrees Celsius.
The fish in control pond were fed with 10 gram Cyprico White 3 mm floater feed per day, whereas the fish in the other pond were fed with 10 gram of the feeds as described in Example 2, 3 and 4 Table 1).
This effect increased gradually every day until after 5 days the fish were fully mobile, whereas the temperature of the water was still between 2 and 3 degrees Celsius. Mobility of the fish was scored on a relative index of 1 to 5 wherein 1 is fully immobile and 5 is fully mobile Table 2). The water in the control pond was at exactly the same temperature as that of the other ponds, however the fish in the control pond were completely immobile. […] The fish were healthy and fully mobile whereas the control group was almost fully immobile.
Fish in ponds 1, 2 and 3 were fed with fish feed according to the invention, fish in pond 4 received control feed. Further details are described in the examples.

Row | Molecule | Lengthening of the seasonal mobility period of fish (in words) (fish) | Daily intake, optimum of cost benefit (fish; in vivo) | Mobility (koi fish; day 1, water 2 degrees Celsius) | Mobility (koi fish; day 2, water 2 degrees Celsius) | Mobility (koi fish; day 3, water 3 degrees Celsius) | Mobility (koi fish; day 4, water 3 degrees Celsius) | Mobility (koi fish; day 5, water 3 degrees Celsius) | Mobility (koi fish; day 8, water 3 degrees Celsius) | Mobility (koi fish; day 12, water 3 degrees Celsius) | Mobility (koi fish; day 16, water 4 degrees Celsius) | Mobility (koi fish; day 20, water 5 degrees Celsius) | Mobility (koi fish; day 24, water 5 degrees Celsius) | Mobility (koi fish; day 28, water 6 degrees Celsius)
1 | 1,3 and 1,6 beta glucans | very useful | around 60 ug/kglw/day | – | – | – | – | – | – | – | – | – | – | –
2 | O=C(O)Cc1c[nH]c2ccccc12 [free IAA, indole-3-acetic acid] | Particularly good results | – | 1 | 1 | 1 | 2 | 2 | 3 | 2 | 2 | 3 | 4 | 4
